This note sets out measurements from US7025991B2, “Drug targeting system, method of its preparation and its use” (NanoDel Technologies GmbH, priority 1997, dated 2006).

This experiment deals with mice. Nature of the experiment: hot plate test (analgesic effect) after intravenous or oral application. In kind it is in vivo. The following applies: intravenous injection, dalargin dose 10.0 mg/kg. An excerpt: Dalargin was given either in solution, or after sorptive binding to nanoparticles. The groups (n=10) are as follows:
Dalargin was given either in solution, or after sorptive binding to nanoparticles. The data were collected at different time points following oral application.
Dalargin was given either in solution, or after sorptive binding to nanoparticles that were stabilized with Dextran 12.000.
Dalargin was adsorbed to poly(butyl cyanoacrylate) nanoparticles which were stabilized with polysorbate 85.
After this time, the preparation was injected intravenously into mice at a dalargin dose of 10.0 mg/kg. Various preparations include pure dalargin solution and empty nanoparticles served as controls.
Activity threshold was measured with the hot plate test.
2. […] The analgesia was determined 30, 45, 60, 90, 120 and 150 min after p.o. application.
4. To test the question whether other stabilizers may be used to achieve the desired effect, nanoparticles were investigated in which the stabilizer was the low molecular size dextran 12,000. The dextran 12,000 stabilized nanoparticles of Example 2 were loaded with dalargin, and the analgesic effect was determined in the hot plate test after intravenous injection into mice.
(In general: Hot-plate and tail-flick tests time the reaction to a heat stimulus.)

Regarding dalargin, the “analgesic effect, hot plate test” value is “did not exhibit any analgesic effect”. Besides, the “analgesic effect, hot plate test” value (listed as dalargin alone) was “None of the control groups (empty nanoparticles and dalargin alone) exhibited any analgesic effects”.
